The source of these data is paper PMC3534778 (European journal of pharmacology, 2012).

Test [1] addresses α7-nicotinic acetylcholine receptor (Rattus norvegicus, UniProt Q05941). The test is classed as binding.
For the next test, the target named is NMDA receptor. The test is classed as binding, rat.
Test [2] concerns the target rat α7-nicotinic acetylcholine receptor (Rattus norvegicus, UniProt Q05941). Type of test: cell-based.
The target in test [3] is rat α3β4-nicotinic acetylcholine receptor (Rattus norvegicus, UniProt P04757+P12392). Type of test: cell-based. As to conditions: read-out: IC50, inhibition of (S)-nicotine-induced whole-cell current.
Sequence of rat α3β4-nicotinic acetylcholine receptor (P04757 26-499): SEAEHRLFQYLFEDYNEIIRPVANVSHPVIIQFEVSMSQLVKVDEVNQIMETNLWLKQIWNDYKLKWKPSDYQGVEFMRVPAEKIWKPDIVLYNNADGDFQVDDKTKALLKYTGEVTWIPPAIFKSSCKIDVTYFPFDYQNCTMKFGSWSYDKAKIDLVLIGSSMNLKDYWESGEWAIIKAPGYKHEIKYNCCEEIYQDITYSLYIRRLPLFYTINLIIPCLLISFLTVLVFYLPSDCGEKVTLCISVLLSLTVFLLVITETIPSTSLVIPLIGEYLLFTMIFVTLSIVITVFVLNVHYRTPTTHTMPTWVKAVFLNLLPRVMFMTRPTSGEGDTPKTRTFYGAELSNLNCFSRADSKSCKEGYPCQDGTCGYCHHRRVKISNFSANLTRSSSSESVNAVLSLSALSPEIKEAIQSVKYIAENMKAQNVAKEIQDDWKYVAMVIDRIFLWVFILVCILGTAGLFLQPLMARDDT
Sequence of rat α3β4-nicotinic acetylcholine receptor (P12392 21-495): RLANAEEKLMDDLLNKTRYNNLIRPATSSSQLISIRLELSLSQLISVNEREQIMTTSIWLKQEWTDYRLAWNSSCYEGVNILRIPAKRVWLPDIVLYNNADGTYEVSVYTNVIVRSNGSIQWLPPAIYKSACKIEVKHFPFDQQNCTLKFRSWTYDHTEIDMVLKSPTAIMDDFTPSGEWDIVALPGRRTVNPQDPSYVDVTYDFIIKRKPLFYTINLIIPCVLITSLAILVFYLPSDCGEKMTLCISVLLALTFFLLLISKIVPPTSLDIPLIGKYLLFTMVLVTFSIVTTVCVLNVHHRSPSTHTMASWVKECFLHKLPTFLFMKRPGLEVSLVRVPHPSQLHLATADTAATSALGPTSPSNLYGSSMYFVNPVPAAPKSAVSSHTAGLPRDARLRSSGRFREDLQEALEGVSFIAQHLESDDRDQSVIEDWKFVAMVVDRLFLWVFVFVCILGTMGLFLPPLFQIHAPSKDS
The target in test [4] is α4β2-nicotinic acetylcholine receptor (Homo sapiens, UniProt P17787+P43681). Briefly: Acetylcholine-evoked currents in α4β2-nicotinic acetylcholine receptor. Type of test: cell-based.
Sequence of α4β2-nicotinic acetylcholine receptor (P43681 29-627 limits assumed): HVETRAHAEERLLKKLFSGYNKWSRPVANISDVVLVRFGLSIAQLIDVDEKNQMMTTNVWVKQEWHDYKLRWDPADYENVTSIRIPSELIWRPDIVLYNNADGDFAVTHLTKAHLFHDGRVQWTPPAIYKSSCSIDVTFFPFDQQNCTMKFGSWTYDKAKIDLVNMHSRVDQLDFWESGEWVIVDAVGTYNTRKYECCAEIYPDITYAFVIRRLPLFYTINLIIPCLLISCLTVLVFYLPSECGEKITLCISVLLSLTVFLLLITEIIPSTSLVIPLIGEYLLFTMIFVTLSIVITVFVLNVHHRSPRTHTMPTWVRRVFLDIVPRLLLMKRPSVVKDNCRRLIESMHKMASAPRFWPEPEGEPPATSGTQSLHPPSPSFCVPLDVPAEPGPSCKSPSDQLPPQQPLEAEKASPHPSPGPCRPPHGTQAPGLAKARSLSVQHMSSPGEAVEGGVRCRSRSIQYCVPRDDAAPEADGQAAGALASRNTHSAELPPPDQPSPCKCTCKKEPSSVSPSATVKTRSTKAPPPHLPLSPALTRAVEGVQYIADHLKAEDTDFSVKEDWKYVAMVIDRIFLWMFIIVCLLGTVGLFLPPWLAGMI
Sequence of α4β2-nicotinic acetylcholine receptor (P17787 26-502 limits assumed): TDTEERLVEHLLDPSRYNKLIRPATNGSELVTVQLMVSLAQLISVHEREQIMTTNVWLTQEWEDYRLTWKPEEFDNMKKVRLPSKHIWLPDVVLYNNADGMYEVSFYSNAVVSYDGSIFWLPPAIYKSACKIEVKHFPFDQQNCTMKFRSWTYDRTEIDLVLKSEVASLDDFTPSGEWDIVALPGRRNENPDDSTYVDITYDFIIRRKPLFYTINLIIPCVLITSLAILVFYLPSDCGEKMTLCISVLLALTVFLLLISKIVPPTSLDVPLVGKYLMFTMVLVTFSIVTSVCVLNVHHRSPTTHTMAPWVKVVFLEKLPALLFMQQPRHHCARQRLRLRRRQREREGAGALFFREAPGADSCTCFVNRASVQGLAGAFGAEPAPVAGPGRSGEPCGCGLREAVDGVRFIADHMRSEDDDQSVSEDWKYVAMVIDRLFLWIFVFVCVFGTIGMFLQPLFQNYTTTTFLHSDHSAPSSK
For test [5] the following is noted: human, in vivo; cited from earlier work.

Structures are written as SMILES. Where “and” joins values, the source holds several entries; their conditions need not be identical. Identical values can stand only once. Entries after “also recorded” stand apart in the source; their conditions may differ. Like-named read-outs stand apart in the source and are kept apart here. A value given as a limit tells only on which side of the number the result lay.

Sequence of α7-nicotinic acetylcholine receptor (Q05941 23-502): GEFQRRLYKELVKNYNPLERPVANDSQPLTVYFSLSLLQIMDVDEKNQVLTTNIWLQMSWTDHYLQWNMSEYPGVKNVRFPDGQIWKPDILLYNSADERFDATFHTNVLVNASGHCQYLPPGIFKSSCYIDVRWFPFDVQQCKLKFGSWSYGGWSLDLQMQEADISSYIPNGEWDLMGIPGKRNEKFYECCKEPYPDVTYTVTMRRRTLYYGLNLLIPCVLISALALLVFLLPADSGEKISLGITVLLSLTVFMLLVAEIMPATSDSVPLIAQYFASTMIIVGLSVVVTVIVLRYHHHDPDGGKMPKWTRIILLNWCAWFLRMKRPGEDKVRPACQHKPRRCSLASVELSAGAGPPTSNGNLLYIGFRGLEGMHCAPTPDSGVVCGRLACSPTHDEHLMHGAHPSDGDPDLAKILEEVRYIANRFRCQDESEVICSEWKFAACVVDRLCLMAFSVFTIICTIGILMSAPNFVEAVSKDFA
Sequence of rat α7-nicotinic acetylcholine receptor (Q05941 23-502): as above

Usually Ki stands for the dissociation constant of the complex between target and ligand, obtained from inhibition or displacement. A low value points to tighter binding. Regarding `N[C@@]1(c2ccccc2Cl)CCC=CC1=O` [(R)-Dedhydronorketamine, (R)-dehydronorketamine], in test [1], the “Displacement of [3H]-epibatidine” value was “not displaced” and the “Displacement of [125I]-α-bungarotoxin” value was “did not displace”. Also, the Ki at NMDA receptor came to 74.5 µM.
What is called IC50 is the point on the concentration scale where inhibition reaches its midpoint. Turning to `NC1(c2ccccc2Cl)CCCCC1=O` (racemic) [(R,S)-norketamine], the “Inhibition of acetylcholine-induced current” value in test [2] (100 nM compound, 280 μM acetylcholine) is recorded as ~ 45%. The “Mean current evoked by 280 μM acetylcholine, normalized to acetylcholine alone” value came to 0.548 in test [2] (100 nM compound, −80 mV, n = 4, fraction of current remaining) and 0.287 in test [2] (1000 nM compound, −80 mV, n = 4, fraction of current remaining). For the same compound, in test [3], the IC50 came out at 9.1 µM.
As to `N[C@]1(c2ccccc2Cl)CCC[C@H](O)C1=O` [(2S,6S)-hydroxynorketamine], the “Mean current evoked by 280 μM acetylcholine, normalized to acetylcholine alone” value in test [2] is 0.461 and 0.361. Moreover, the inhibitory constant (Ki) on NMDA receptor is 21 µM and 21.2 µM. The IC50 in test [3] is more than 200 µM.
For the compound `N[C@@]1(c2ccccc2Cl)CCC[C@@H](O)C1=O` [(2R,6R)-hydroxynorketamine], the “Mean current evoked by 280 μM acetylcholine, normalized to acetylcholine alone” value in test [2] is 0.354 and 0.489. The compound further showed a Ki at NMDA receptor of more than 100 µM. Also, the half-inhibitory concentration (IC50) in test [3] was more than 200 µM.
For `N[C@]1(c2ccccc2Cl)CCC=CC1=O` [(S)-Dehydronorketamine, (S)-dehydronorketamine], in test [1], the “Displacement of [3H]-epibatidine” value is given as “not displaced” and the “Displacement of [125I]-α-bungarotoxin” value is given as “did not displace”. Further, the Ki on NMDA receptor was 39 µM.
At NMDA receptor, `N[C@]1(c2ccccc2Cl)CCCCC1=O` [(S)-norKetamine, (S)-norketamine] registered a Ki of 2.25 ± 0.22 µM.
On the same count and under the same terms, to `N[C@@]1(c2ccccc2Cl)CCCCC1=O` [(R)-norKetamine, (R)-norketamine] belongs 26.5 µM.
As to `NC1(c2ccccc2Cl)CCC=CC1=O` (racemic) [(R,S)-dehydronorketamine], in test [1], the “Displacement of [3H]-epibatidine” value is given as “did not competitively displace” and the “Displacement of [125I]-α-bungarotoxin” value is recorded as “did not competitively displace”. In addition, in test [2], the “Current activation (agonist effect)” value was “No measurable effect”; the “Hill coefficient nH” value amounted to 0.66 ± 0.05; the “Inhibition of acetylcholine-induced current” value is reported as ~ 60%; the “Mean current evoked by 280 μM acetylcholine, normalized to acetylcholine alone” value is 0.407 and 0.205. Besides, the “Voltage dependence of the inhibitory effect” value in test [2] was “voltage-independent”. The “Inhibition of ACh-induced whole-cell current” value in test [2] (0.03 µM) turned out to be 45%. Moreover, the IC50 in test [2] (read-out: IC50, inhibition of acetylcholine-evoked current) stood at 0.055 ± 0.006 µM. Moreover, the IC50 in test [3] was more than 200 µM. The “Effect on acetylcholine-evoked currents” value in test [4] is recorded as “no effect”.
For the compound `CNC1(c2ccccc2Cl)CCCCC1=O` (racemic) [(R,S)-Ketamine, reference compound], in test [5], the “Patients reporting a positive response” value is recorded as 41% and the Response rate is 30%. In test [2], the “Effect on acetylcholine-induced current” value was “inactive; also recorded: no observable effect”. For the same compound, the half-inhibitory concentration (IC50) in test [3] is 3.1 µM.
